From ChEMBL document CHEMBL1201862, “PubChem BioAssay data set” (2004)
Where “and” joins values, the source holds several entries; their conditions need not be identical. Equal entries are not always repeated. Structures can show the parent of a compound that is named as a salt. Calls of active or inactive are those of the source.

Assays:
[1] = target: T1, Voltage-gated N-type calcium channel alpha-1B subunit/Amyloid beta A4 precursor protein-binding family A member 1 (Homo sapiens, UniProt Q00975+Q02410); format: protein assay
[2] = target: Eukaryotic translation initiation factor 4E (Mus musculus, UniProt P63073); assay: blockers of eIF4G binding by eIF4E – biochemical, TR-FRET, dose response (AID 855); format: functional;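 also: potency for disrupting eIF4E binding to eIF4GI seen as loss of FRET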
[3] = target: T2, Tyrosine-protein phosphatase non-receptor type 7 (Homo sapiens, UniProt P35236); assay: redox-active compounds inhibiting HePTP phosphatase – biochemical, fluorescence, mechanism study (AID 2068); format: functional
T2 sequence (P35236 whole entry): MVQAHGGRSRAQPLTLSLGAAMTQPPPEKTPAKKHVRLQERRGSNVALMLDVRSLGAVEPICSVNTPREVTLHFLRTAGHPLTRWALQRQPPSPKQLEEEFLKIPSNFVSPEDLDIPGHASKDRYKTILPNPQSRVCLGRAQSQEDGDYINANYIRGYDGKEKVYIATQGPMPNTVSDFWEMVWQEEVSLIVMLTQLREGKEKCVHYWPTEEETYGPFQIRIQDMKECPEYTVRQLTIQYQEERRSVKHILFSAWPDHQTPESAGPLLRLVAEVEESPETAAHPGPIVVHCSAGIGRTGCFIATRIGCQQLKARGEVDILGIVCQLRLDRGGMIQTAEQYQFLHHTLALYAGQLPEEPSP

[4] = target: T1, Voltage-gated N-type calcium channel alpha-1B subunit/Amyloid beta A4 precursor protein-binding family A member 1; format: protein assay; remark: listed apart in the source
[5] = target: Glutathione-S-transferase (Schistosoma japonicum, UniProt Q26513); assay: GST-antibody interaction or FRET quenching – biochemical, TR-FRET, artefact control for Vif-APOBEC3G degradation inhibitor project, dose response (AID 1117362); format: functional
[6] = target: T3, Short transient receptor potential channel 4 (Mus musculus, UniProt Q9QUQ5); assay: potentiation of DAMGO-evoked TRPC4 calcium signal – cell-based, HEK293 TRPC4/mu-opioid, Fluo-4 calcium, EC20 DAMGO, dose response (AID 434941); format: functional
T3 sequence (Q9QUQ5 whole entry): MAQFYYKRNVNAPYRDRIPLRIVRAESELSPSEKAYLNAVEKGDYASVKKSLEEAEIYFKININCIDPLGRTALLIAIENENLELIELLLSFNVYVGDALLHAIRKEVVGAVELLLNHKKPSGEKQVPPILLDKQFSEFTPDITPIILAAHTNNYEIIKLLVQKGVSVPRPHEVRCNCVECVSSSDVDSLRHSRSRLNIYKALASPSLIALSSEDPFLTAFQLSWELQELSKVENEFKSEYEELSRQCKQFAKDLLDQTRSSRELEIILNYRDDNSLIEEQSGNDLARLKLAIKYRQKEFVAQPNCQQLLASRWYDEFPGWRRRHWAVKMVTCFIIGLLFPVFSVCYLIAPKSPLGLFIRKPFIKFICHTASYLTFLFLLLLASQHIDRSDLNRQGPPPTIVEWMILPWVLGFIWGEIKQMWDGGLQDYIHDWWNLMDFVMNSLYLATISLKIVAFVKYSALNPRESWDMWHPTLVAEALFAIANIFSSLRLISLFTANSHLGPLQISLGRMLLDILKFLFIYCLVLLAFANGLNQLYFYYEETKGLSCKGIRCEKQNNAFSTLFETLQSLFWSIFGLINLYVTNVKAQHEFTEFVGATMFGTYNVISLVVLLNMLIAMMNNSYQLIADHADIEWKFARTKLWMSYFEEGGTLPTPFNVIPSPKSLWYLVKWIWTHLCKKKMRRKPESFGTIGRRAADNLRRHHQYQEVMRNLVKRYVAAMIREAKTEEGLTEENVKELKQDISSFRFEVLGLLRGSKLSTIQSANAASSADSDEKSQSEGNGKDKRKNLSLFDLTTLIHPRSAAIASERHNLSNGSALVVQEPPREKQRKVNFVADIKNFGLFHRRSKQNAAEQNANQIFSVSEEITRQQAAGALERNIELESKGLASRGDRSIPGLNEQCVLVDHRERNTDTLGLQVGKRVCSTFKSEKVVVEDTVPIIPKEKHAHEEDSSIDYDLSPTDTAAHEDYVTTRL

[7] = NIH/3T3 cell viability loss – mouse embryonic fibroblasts, dry powder, set 2, cytotoxicity control, dose response (AID 493247); format: functional, cell-based; settings: Fibroblast
[8] = Luminescence Cell-Based Secondary HTS screen to identify cytotoxic compounds of NIH3T3 cells. [Related pubchem assays: 1885, 1968 ]; format: functional
Trypanosoma cruzi = assay: anti-trypanosomal activity in host cells – cell-based, plate reader, dry powder, set 3, dose response (AID 493197); format: functional
[9] = Luminescence Cell-Based/Microorganism Confirmation at Dose of Inhibitors of Trypanosoma cruzi Infection. [Related pubchem assays: 1885, 1968 ]; format: functional
Phosphomannomutase 2 = target: T4, Phosphomannomutase 2 (Homo sapiens, UniProt O15305); assay: Counter screen SAR assay for PMM2 inhibitors via a fluorescence intensity assay. [Related pubchem assays (depositor defined):AID1545, AID1574]
T4 sequence (O15305 whole entry): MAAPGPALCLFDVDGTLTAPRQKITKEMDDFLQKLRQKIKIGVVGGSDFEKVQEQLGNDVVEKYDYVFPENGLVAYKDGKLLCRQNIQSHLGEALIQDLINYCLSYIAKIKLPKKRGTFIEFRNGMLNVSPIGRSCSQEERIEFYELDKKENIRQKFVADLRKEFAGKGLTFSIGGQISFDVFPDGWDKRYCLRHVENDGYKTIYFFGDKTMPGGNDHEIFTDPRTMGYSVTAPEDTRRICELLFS

Hexokinase = Hexokinase (Trypanosoma brucei, UniProt Q38C41); assay: Confirmation assay for inhibitors of Trypanosoma brucei hexokinase 1-Analogue-first series. [Related pubchem assays (depositor defined):AID1430, AID1632, AID2516, AID2560, AID2579, AID2600, AID449725, AID492951]; format: functional
[10] = target: T5, Mannose-6-phosphate isomerase (Homo sapiens, UniProt P34949); assay: phosphomannose isomerase inhibition – biochemical, fluorescence intensity, confirmation (AID 1535)
T5 sequence (P34949 whole entry): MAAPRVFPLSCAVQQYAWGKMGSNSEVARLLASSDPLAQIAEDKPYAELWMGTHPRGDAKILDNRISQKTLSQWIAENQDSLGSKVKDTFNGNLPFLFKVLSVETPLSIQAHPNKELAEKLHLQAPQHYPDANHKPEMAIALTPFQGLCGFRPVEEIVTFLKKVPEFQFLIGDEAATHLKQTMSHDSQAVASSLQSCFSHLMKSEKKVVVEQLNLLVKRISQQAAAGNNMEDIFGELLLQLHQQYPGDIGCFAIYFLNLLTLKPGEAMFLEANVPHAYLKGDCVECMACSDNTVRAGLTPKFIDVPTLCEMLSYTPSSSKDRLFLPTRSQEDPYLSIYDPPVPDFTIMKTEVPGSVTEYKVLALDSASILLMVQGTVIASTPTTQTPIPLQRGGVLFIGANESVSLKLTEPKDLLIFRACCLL

[11] = target: T6, Kappa-type opioid receptor (Homo sapiens, UniProt P41145); assay: SAR analysis of Antagonists of the Kappa Opioid Receptor (KOR) using an Image-Based Assay - Set 3. [Related pubchem assays (depositor defined):AID1777, AID1785]; format: functional
[12] = target: Delta-type opioid receptor (Homo sapiens, UniProt P41143); assay: SAR Analysis of Antagonists of the DOR Receptor using an Image-Based Assay - Set 3. [Related pubchem assays (depositor defined):AID1777, AID1785]; format: functional;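 also: U2OS cells expressing DOR1 and beta-arrestin GFP stimulated with 100 nM SNC80; imaging of GFP-tagged beta-arrestin moving into spots after receptor activation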
[13] = target: T6, Kappa-type opioid receptor; assay: SAR analysis of small molecule antagonists of the kappa opioid receptor via a luminescent beta-arrestin assay - Set 3. [Related pubchem assays (depositor defined):AID1777, AID1778, AID1785, AID1786, AID1966, AID2133, AID2136, AID2285, AID2495]; format: functional
Mu-type opioid receptor = Mu-type opioid receptor (Homo sapiens, UniProt P35372); assay: SAR Analysis of Antagonists of the MOR Receptor using an Image-Based Assay - Set 3. [Related pubchem assays (depositor defined):AID1777, AID1785, AID1786, AID1966, AID2133, AID2136, AID2284, AID2285, AID2420]; format: functional
[14] = target: T7, Intestinal-type alkaline phosphatase (Homo sapiens, UniProt P09923); assay: human intestinal alkaline phosphatase activators, dose response, biochemical, luminescence, uHTS hits (AID 463120); format: functional
[15] = NIH-3T3 fibroblast cytotoxicity, dose response, cytotoxicity control, cell-based, fluorescence, Alamar Blue, secondary assay (AID 2327); format: functional;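 also: NIH-3T3 mouse fibroblasts cultured with fluconazole at 8 µg/mL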
SUMO-activating enzyme [16] = target: T8, SUMO-activating enzyme (Homo sapiens, UniProt Q9UBT2); assay: blockers of UBC9-mediated SUMO conjugation – biochemical, AlphaScreen, SUMOylation inhibitor project, confirmation (AID 2018); format: functional
SUMO-activating enzyme [17] = target: T8, SUMO-activating enzyme; assay: blockers of SAE1/SAE2–UBC9 SUMO transfer – biochemical, HTRF, uHTS, primary screen (AID 2006); format: protein-complex assay
[18] = fluconazole-exposed Candida albicans growth modulators – fluorescence, retest, confirmation (AID 2467); format: functional, cell-based
[19] = target: T7, Intestinal-type alkaline phosphatase; assay: activation of human intestinal alkaline phosphatase – biochemical, luminescent, uHTS hits, set 2, dose response (AID 488817); format: functional;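 also: potency of activators that raise enzyme activity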
[20] = target: T9, Alkaline phosphatase, tissue-nonspecific isozyme (Homo sapiens, UniProt P05186); assay: activation of tissue-nonspecific alkaline phosphatase – biochemical, TNAP isozyme, human IAP uHTS hits, selectivity assay for human IAP activator project, dose response (AID 488886); format: functional;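 also: potency of compounds raising TNAP activity as a selectivity check on IAP activators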
T9 sequence (P05186 whole entry): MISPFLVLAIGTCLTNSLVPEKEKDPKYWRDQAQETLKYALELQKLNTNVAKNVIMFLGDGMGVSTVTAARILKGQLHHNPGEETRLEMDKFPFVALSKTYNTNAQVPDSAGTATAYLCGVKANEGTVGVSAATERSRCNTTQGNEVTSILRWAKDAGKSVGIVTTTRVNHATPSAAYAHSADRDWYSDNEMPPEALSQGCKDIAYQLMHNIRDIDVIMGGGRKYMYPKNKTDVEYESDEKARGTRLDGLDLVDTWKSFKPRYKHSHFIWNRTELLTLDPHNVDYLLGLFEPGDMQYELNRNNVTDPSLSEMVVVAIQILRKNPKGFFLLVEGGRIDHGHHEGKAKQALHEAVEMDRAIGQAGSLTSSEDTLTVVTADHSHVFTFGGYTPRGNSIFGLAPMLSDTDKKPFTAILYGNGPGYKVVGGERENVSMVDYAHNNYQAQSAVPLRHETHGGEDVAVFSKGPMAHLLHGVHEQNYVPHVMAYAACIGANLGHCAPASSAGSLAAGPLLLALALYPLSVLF

[21] = target: Intestinal-type alkaline phosphatase (Mus musculus, UniProt P24822); assay: PubChem AID 488875; format: functional
[22] = target: G-protein coupled receptor 55 (Homo sapiens, UniProt Q9Y2T6); assay: inhibition of LPI-stimulated GPR55 beta-arrestin translocation – imaging, U2OS, beta-arrestin-GFP, LPI agonist, primary screen (AID 2013); format: functional;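 also: antagonist potency measured as reduced agonist-driven arrestin aggregation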

T1 sequence (Q00975 whole entry): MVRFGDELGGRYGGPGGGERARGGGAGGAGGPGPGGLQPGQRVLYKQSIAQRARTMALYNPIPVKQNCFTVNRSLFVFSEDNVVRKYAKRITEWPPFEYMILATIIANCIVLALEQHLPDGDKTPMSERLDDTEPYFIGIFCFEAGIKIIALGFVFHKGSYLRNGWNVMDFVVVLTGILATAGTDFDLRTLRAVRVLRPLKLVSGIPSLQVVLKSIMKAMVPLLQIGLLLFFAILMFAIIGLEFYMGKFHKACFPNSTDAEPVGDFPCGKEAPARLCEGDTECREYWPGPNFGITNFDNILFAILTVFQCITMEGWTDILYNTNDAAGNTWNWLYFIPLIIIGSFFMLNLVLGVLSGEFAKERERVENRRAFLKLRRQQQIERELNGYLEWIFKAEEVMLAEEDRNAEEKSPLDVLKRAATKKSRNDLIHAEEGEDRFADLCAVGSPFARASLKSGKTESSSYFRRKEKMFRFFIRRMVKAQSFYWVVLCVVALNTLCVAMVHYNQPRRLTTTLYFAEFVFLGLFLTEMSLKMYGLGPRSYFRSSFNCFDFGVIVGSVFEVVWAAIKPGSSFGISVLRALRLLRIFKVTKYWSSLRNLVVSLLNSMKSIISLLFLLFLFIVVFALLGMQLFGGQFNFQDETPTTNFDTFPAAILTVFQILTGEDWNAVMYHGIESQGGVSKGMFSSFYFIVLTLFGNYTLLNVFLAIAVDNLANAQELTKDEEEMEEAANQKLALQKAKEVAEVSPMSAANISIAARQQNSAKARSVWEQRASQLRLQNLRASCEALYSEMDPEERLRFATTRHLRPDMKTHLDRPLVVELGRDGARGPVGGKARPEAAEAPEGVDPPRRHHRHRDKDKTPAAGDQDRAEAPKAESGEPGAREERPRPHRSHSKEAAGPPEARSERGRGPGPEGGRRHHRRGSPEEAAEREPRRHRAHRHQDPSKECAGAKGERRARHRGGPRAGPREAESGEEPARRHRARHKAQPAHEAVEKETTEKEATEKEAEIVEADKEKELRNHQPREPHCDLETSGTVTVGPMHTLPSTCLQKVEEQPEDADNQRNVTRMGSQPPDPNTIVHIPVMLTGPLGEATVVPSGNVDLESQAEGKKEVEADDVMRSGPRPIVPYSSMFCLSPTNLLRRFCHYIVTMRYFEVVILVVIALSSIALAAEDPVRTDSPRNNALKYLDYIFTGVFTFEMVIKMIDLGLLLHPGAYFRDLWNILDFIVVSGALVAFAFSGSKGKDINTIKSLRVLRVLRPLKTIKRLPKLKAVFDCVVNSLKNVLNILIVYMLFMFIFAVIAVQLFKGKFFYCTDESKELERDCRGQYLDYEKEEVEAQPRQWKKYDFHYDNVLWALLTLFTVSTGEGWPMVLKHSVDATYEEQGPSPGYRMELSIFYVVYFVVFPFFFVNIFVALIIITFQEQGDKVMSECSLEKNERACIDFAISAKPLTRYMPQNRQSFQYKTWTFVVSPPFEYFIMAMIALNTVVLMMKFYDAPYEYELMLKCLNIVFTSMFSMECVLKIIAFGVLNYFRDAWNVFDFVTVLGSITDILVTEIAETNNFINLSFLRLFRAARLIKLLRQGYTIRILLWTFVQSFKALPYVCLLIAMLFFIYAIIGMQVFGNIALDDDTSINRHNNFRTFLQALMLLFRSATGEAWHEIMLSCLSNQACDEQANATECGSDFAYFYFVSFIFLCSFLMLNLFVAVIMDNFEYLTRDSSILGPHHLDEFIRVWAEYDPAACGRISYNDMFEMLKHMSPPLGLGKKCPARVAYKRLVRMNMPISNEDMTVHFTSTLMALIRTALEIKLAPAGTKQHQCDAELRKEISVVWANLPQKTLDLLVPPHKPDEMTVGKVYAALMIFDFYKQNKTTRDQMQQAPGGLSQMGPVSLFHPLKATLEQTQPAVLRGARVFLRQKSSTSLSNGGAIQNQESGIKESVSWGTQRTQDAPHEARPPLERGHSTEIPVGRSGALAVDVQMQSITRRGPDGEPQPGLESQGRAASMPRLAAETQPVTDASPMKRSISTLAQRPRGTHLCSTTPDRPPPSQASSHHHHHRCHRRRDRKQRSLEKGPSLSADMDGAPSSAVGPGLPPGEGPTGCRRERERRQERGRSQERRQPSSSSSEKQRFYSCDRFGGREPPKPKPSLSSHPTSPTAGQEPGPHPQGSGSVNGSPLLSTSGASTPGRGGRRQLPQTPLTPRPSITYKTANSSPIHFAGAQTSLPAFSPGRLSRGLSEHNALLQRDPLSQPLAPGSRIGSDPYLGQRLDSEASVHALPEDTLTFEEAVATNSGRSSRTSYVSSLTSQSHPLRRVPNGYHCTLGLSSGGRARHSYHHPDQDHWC
T1 sequence (Q02410 whole entry): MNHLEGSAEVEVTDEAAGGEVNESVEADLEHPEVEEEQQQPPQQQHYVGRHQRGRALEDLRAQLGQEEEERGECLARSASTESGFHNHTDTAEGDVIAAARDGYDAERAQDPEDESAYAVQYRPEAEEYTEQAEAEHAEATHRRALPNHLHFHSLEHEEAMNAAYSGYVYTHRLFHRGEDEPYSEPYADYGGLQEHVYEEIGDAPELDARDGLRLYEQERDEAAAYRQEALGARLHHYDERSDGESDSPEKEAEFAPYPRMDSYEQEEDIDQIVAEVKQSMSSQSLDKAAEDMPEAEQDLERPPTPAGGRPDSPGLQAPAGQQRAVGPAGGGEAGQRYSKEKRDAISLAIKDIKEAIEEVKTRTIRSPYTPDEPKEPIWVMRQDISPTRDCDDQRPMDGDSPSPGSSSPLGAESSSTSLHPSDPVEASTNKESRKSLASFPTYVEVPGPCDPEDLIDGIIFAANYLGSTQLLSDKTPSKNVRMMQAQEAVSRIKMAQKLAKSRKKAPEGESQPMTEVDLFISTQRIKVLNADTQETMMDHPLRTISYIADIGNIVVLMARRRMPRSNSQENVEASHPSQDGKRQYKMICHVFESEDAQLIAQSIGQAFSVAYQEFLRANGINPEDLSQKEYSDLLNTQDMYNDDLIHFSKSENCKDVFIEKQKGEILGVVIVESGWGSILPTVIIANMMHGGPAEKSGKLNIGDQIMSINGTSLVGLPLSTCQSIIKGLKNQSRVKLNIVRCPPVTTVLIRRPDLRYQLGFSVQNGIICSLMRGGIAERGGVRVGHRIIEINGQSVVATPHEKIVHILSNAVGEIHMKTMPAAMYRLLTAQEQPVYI
T6 sequence (P41145 whole entry): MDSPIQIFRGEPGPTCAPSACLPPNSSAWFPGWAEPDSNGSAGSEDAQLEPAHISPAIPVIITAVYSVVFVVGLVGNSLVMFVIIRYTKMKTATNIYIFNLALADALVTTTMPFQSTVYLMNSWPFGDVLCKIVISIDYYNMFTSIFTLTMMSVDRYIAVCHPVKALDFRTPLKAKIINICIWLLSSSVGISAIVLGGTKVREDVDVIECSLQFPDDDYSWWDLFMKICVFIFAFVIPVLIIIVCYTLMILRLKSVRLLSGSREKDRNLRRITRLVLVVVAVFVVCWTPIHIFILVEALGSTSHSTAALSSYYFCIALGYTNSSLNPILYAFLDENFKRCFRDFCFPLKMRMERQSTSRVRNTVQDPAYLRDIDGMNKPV
T8 sequence (Q9UBE0 whole entry): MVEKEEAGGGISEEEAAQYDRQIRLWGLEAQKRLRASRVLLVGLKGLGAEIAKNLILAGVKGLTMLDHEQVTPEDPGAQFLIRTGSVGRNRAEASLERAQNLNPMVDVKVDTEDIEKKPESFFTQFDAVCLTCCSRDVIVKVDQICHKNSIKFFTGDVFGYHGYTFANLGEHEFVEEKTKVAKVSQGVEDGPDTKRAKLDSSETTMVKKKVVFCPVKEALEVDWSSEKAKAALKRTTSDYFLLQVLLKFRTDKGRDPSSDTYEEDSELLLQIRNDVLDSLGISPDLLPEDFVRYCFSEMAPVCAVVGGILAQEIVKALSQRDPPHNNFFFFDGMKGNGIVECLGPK
T8 sequence (Q9UBT2 whole entry): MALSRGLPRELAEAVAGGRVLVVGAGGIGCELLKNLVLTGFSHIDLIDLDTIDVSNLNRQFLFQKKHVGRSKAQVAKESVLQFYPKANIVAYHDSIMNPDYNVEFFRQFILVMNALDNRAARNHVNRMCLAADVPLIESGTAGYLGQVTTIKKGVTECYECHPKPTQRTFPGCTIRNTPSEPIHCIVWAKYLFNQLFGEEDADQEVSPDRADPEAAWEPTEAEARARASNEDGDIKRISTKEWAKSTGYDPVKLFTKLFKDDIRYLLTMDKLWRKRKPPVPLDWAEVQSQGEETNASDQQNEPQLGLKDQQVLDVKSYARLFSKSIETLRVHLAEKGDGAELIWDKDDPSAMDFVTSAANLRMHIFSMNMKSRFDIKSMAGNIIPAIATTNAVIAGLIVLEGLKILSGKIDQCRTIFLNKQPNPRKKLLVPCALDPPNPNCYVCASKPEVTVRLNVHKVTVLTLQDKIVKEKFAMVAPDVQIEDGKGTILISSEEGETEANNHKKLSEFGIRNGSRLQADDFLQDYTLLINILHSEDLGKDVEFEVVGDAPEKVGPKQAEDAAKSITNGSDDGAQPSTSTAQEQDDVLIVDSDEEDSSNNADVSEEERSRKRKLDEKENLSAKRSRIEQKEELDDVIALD
T7 sequence (P09923 whole entry): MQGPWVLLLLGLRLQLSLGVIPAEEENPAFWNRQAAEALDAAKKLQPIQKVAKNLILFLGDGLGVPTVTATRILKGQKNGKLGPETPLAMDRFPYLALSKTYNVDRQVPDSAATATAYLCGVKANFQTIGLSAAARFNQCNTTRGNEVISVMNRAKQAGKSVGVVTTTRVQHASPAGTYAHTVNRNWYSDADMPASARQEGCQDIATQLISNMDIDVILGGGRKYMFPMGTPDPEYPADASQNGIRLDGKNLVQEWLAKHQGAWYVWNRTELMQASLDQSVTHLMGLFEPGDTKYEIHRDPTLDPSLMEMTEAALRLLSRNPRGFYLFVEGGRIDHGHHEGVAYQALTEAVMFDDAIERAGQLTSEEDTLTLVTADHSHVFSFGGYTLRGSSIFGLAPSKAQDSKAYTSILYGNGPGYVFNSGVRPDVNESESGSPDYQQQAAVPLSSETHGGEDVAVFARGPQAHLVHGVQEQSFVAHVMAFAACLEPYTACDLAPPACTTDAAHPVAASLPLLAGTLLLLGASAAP

SMILES: O=C(NCCCO)Nc1ccc2nc(-c3ccco3)c(-c3ccco3)nc2c1
- IC50 [1]: 20 µM (active)
- IC50 [2]: 9.25 µM (active)
- IC50 [3]: 841 nM (active) and 537 nM (active)
- IC50 [4]: 0.507 µM (active)
- IC50 [5]: > 100 µM (active)

SMILES: CCOc1ccc(-n2c(SCC(=O)O)nc3sc4c(c3c2=O)CCCC4)cc1
- EC50 [6]: 5.96 µM (active)

SMILES: CN(Cc1ccccc1)C(=O)C1CCCN(Cc2cccc(Cl)c2)C1 (stereo unspecified)
- AC50 [7]: 70.3 µM (active)
- EC50 [8]: > 195 µM (not active)
- AC50 (Trypanosoma cruzi): 0.57 µM (active)
- EC50 [9]: 0.231 µM (active)

SMILES: COc1cccc(-n2sc3ccccc3c2=O)c1
- IC50 (Phosphomannomutase 2): 14.3 µM (active)
- IC50 (Hexokinase): 2.52 µM (active)
- IC50 [10]: 4.19 µM (active)

SMILES: CCN(CCNC(=O)c1ccc(CNS(=O)(=O)c2ccc(C)cc2)cc1)Cc1ccccc1
- IC50 [11]: 2.93 µM (active)
- IC50 [12]: > 32 µM (inactive)
- IC50 [13]: 5.57 µM (active)
- IC50 (Mu-type opioid receptor): 10.3 µM (inactive)

SMILES: COc1cccc(/C=N\NC(=O)C2=NNC(=O)C2C)c1O (stereo unspecified)
- EC50 [14]: 6.53 µM (active)
- EC50 [15]: > 160 µM (inconclusive)
- IC50 (SUMO-activating enzyme [16]): 5.18 µM (active)
- IC50 (SUMO-activating enzyme [17]): 18.3 µM (active)
- EC50 [18]: > 38 µM (not active)
- EC50 [19]: 9.07 µM (active)
- EC50 [20]: 8.88 µM (active)
- EC50 [21]: > 100 µM (inactive)

SMILES: CC(NCCC(c1ccccc1)c1ccccc1)c1ccccc1 (stereo unspecified) [FENDILINE HYDROCHLORIDE]
- IC50 [22]: 3.1 µM (active)
